# Measurements: patent publication US6903052B2, “Nematicidal compositions and methods” (Divergence, Inc., priority 2002, dated 2005)
# Columns and labels:
# C. elegans [1] = assay: Nematicidal activity of single fatty acid methyl ester emulsions against Caenorhabditis elegans (Example 4); format: cell-based
# Method: Mixed stage Caenorhabditis elegans were washed off plates seeded with OP50 bacteria using M9 solution. 250 μl of the M9 solution, which contained about 50 worms, was pipetted into each well of a 24-well plate.
# (§1) Fatty acid methyl ester emulsions were prepared following the teachings of Kim et al (U.S. Pat. No. 5,698,592). Briefly, 1 ml 1% stock solution emulsions were prepared by mixing 10 μl of fatty acid methyl ester with 20 μl of the surfactant Igepal CO 630 in a 1.5 ml eppendorf tube. After careful mixing of fatty acid and Igepal CO 630, 850 μl of ddH20 was added and mixed by gentle pipetting until a homogeneous solution was obtained. Finally, 120 μl of pure isopropanol was added and mixed by gentle pipetting. This stock solution was then used to produce various fatty acid methyl ester dilution emulsions in 24-well plate assays.
# To each well, fatty acid emulsions or control emulsions were added and rapidly mixed by swirling. Nematode viability was scored by visual observation and motility assays at various time points 24 hours following addition of emulsions or controls. The fatty acid emulsions tested were methyl esters of nonanoic (pelargonic) acid, ricinoleic acid, vernolic acid, linoleic acid, oleic acid, and control emulsions lacking fatty acids.
# M. javanica [2] = assay: Nematicidal activity of fatty acid methyl ester emulsions against root knot nematode J2 larvae (Example 6); format: cell-based, Meloidogyne javanica; conditions: 0.1% emulsion; 48 hours incubation, counted about 24 hours after transfer to plates
# Method: as §1
# (§2) Meloidogyne incognita and javanica were prepared from tomato roots. The roots were bleached and the debris was separated from the J2 larvae and eggs by filtration followed by sucrose density gradient centrifugation. Eggs were hatched over 4 days at 15° C. and the J2 larvae were collected by passage though a filter, followed by centrifugation.
# (§3) Nematodes and emulsions were incubated with shaking at room temperature for 48 hours. The contents of each well were transferred to a small spot on individual NGM plates lacking bacteria. About 24 hours after the transfer to plates, worms on and off the inoculation spot were counted as not viable or viable, respectively. Worms were considered viable if they had crawled away from the inoculation spot, or if they were moving. Worms were considered non-viable if they remained at the inoculation spot.
# M. incognita = assay: as above; format: cell-based, Meloidogyne incognita; conditions: 0.1% emulsion; 48 hours incubation, counted about 24 hours after transfer to plates
# Method: as §1, §2, §3
# tomato seedlings = assay: Phytotoxicity evaluation on tomato seedlings; format: in vivo; conditions: 250 μl of 1% emulsion applied to stem-media interface of two-week seedlings
# Method: Sterilized tomato seeds were germinated in magenta jars containing Gamborg's agar media. After two weeks of growth, seedlings were treated with 250 μl of 1% fatty acid methyl ester emulsion (nonanoic acid, ricinoleic acid, ricinelaidic acid, oleic acid, or a control emulsion lacking any fatty acid), applied directly to the stem-media interface. Tomato seedlings were scored at various times after application of emulsions.
# C. elegans [3] = assay: Nematicidal activity of fatty acid methyl ester emulsions, spectrum (Example 8); format: cell-based, Caenorhabditis elegans; conditions: C. elegans mixed stage
# Method: (§4) Briefly, the indicated fatty acid emulsions were added and rapidly mixed by swirling. Nematode viability was scored by visual observation and motility assays 24 hours following addition of emulsions (48 hours for plant parasitic nematodes Meloidogyne and Heterodera species). The fatty acid emulsions tested were methyl esters of nonanoic (pelargonic) acid, ricinelaidic acid, ricinoleic acid, vernolic acid, linoleic acid, and oleic acid. […] Results shown are mean % values obtained from multiple independent experiments
# (§5) The Caenorhabiditis elegans were mixed stage populations. Similar effects seen on several other free-living nematode species. The Parastrongyloides trichosuri (parasite of Australian bushtail possum) were dauer-like infective 3rd stage larva. Similar effects are also seen against free-living stages. The Meloidogyne incognita and Meloidogyne javanica (root knot nematode) were 2nd stage juveniles (dauer-like infective stage). The Heterodera glycines (soybean cyst nematode) were 2nd stage juveniles (dauer-like infective stage). Finally, the Pratylenchus scribneri (corn lesion nematode) were mixed stage populations.
# P. trichosuri = assay: as above; format: cell-based, Parastrongyloides trichosuri; conditions: P. trichosuri infective 3rd stage larva
# Method: as §4, §5
# M. javanica [4] = assay: as above; format: cell-based, Meloidogyne javanica; conditions: M. javanica 2nd stage juveniles, scored at 48 hours
# Method: as §4, §5
# H. glycines = assay: as above; format: cell-based, Heterodera glycines; conditions: H. glycines 2nd stage juveniles, scored at 48 hours
# Method: as §4, §5
# P. scribneri = assay: as above; format: cell-based, Pratylenchus scribneri; conditions: P. scribneri mixed stage
# Method: as §4, §5
# [5] = tested on: free-living, animal parasitic, and plant parasitic nematodes; assay: Nematicidal activity across the spectrum of nematodes, summary statement (Example 8); format: cell-based; conditions: concentrations of 0.1% and 0.01%
# Method: as §4, §5
# C. elegans [6] = assay: Nematicidal activity of emulsions made with cyclodextrins (replacing isopropanol) against C. elegans; format: cell-based, Caenorhabditis elegans; conditions: igepal CO 630 / 2-Hydroxypropyl-β-Cyclodextrin emulsion
# Excerpt: In an effort to increase the bioavailability of fatty acid methyl esters in emulsions, isopropanol was replaced with one of two cyclodextrins (Methyl-β-Cyclodextrin or 2-Hydroxypropyl-β-Cyclodextrin).
# B. malayi = assay: Nematicidal activity of tween-based emulsions against microfilarial nematodes; format: cell-based, Brugia malayi
# Method: To each well, tween-based fatty acid emulsions were added and rapidly mixed by swirling. Nematode microfilaria viability was scored by visual observation of motility at 24 and 48 hours following addition of emulsions. The fatty acid emulsions tested were methyl esters of ricinoleic acid, vernolic acid, ricinelaidic acid, oleic acid, and control emulsions lacking fatty acids. The results of this study are presented in Table 7 as the percentage of non-motile microfilaria 24 hours after inoculation and in Table 8 as the percentage of non-motile microfilaria 48 hours after inoculation
# [7] = tested on: everted hamster jejunal and ileal segments; conditions: Gaginella et al. (1975); cited from earlier work
smiles,measurement,setting,value
"CCCCCCC(O)C/C=C\CCCCCCCC(=O)OC (stereo not drawn) [Ricinoleic Acid (C18-methyl ester), 12-hydroxy-cis-9-octadecenoic acid methyl ester]",Percentage of Worm Death,"C. elegans [1]; 0.003% emulsion, 1 hr",60%
same,Percentage of Worm Death,"C. elegans [1]; 0.003% emulsion, 6 hr",60%
same,Percentage of Worm Death,"C. elegans [1]; 0.003% emulsion, 24 hr",60%
same,Percentage of Worm Death,"C. elegans [1]; 0.1% emulsion, 1 hr",90%
same,Percentage of Worm Death,"C. elegans [1]; 0.1% emulsion, 6 hr",90%
same,Percentage of Worm Death,"C. elegans [1]; 0.1% emulsion, 24 hr",90%
same,Nematicidal activity (in words),C. elegans [1]; concentration of 0.1%,strongly nematicidal
same,Time before strong killing effects are apparent,"C. elegans [1]; emulsion, C. elegans",up to 30 minutes
same,M. javanica (% not viable),M. javanica [2],60%
same,M. incognita (% not viable),M. incognita,95%
same,Visible effects on tomato seedlings,tomato seedlings,none of the tomatoes treated with the other fatty acid methyl ester emulsions showed visible effects
same,% Worm Death (24 hr),C. elegans [3]; 0.001% solution,30%
same,% Worm Death (24 hr),C. elegans [3]; 0.01% solution,80%
same,% Worm Death (24 hr),C. elegans [3]; 0.1% solution,100%
same,% Worm Death (24 hr),P. trichosuri; 0.01% solution,˜60%
same,% Worm Death (24 hr),P. trichosuri; 0.1% solution,˜50%
same,% Worm Death (48 hr),M. javanica [4]; 0.01% solution,5%
same,% Worm Death (48 hr),M. javanica [4]; 0.1% solution,60%
same,% Worm Death (24 hr),H. glycines; 0.001% solution,˜40%
same,% Worm Death (24 hr),H. glycines; 0.01% solution,˜60%
same,% Worm Death (24 hr),H. glycines; 0.1% solution,˜60%
same,% Worm Death (24 hr),P. scribneri; 0.01% solution,<20%
same,% Worm Death (24 hr),P. scribneri; 0.1% solution,<20%
same,Nematicidal activity (in words),[5],strongly nematicidal
same,% Worm Death (24 hr),C. elegans [6]; 0.001% solution,˜50%
same,% Worm Death (24 hr),C. elegans [6]; 0.01% solution,>80%
same,% Worm Death (24 hr),C. elegans [6]; 0.1% solution,>95%
same,percentage of non-motile microfilaria,"B. malayi; 24 hrs post-inoculation, 0.0008%",0%
same,percentage of non-motile microfilaria,"B. malayi; 24 hrs post-inoculation, 0.0016%",24.7%
same,percentage of non-motile microfilaria,"B. malayi; 24 hrs post-inoculation, 0.003%",100%
same,percentage of non-motile microfilaria,"B. malayi; 24 hrs post-inoculation, 0.005%",100%
same,percentage of non-motile microfilaria,"B. malayi; 24 hrs post-inoculation, 0.0067%",100%
same,percentage of non-motile microfilaria,"B. malayi; 24 hrs post-inoculation, 0.008%",100%
same,percentage of non-motile microfilaria,"B. malayi; 48 hrs post-inoculation, 0.0008%",0%
same,percentage of non-motile microfilaria,"B. malayi; 48 hrs post-inoculation, 0.0016%",64.2%
same,percentage of non-motile microfilaria,"B. malayi; 48 hrs post-inoculation, 0.003%",100%
same,percentage of non-motile microfilaria,"B. malayi; 48 hrs post-inoculation, 0.005%",100%
same,percentage of non-motile microfilaria,"B. malayi; 48 hrs post-inoculation, 0.0067%",100%
same,percentage of non-motile microfilaria,"B. malayi; 48 hrs post-inoculation, 0.008%",100%
same,Microfilarialcidal activity (in words),B. malayi; tween-based emulsions,strong microfilarialcidal activity
same,Effect on water (and electrolyte) absorption,[7],ineffective at suppressing water absorption
